# In BindingDB's records for doi:10.1016/S0960-894X(01)80994-X (1993):
# Where a SMILES comes first, the peptide text is derived from it. The star is where a group is joined. Cbz = O=C(OCc1ccccc1)*
# Assay: Inhibition of putative Endothelin-converting enzyme partially purified from rabbit lung membranes
row,Compound,IC50 [µM]
1,CC(C)CC(C(=O)NO)C(=O)N[C@@H](Cc1c[nH]c2ccccc12)C(=O)O (stereo partly drawn) [(S)-2-(2-Hydroxycarbamoyl-4-methyl-pentanoylamino)-3-(1H-indol-3-yl)-propionic acid],24
2,COC(=O)[C@H](CC(C)C)NC(=O)[C@@H](CS)NC(=O)OCc1ccccc1 [(S)-2-((S)-2-Benzyloxycarbonylamino-3-mercapto-propionylamino)-4-methyl-pentanoic acid methyl ester],4

# Continued, values first:
row,IC50 [µM],Compound
1,31,COC(=O)[C@H](Cc1c[nH]c2ccccc12)NC(=O)[C@H](CC(C)C)NC(=O)[C@H](CS)NC(=O)OCc1ccccc1 [2-[(S)-2-((R)-2-Benzyloxycarbonylamino-3-mercapto-propionylamino)-4-methyl-pentanoylamino]-3-(1H-indol-3-yl)-propionic acid (S)-methyl ester] (Cbz-Cys-Leu-Trp-OMe)
2,30,O=C(N[C@@H](CS)C(=O)N[C@@H](Cc1c[nH]c2ccccc12)C(=O)O)OCc1ccccc1 [(S)-2-((R)-2-Benzyloxycarbonylamino-3-mercapto-propionylamino)-3-(1H-indol-3-yl)-propionic acid] (Cbz-Cys-Trp-OH)
3,47,COC(=O)[C@H](Cc1c[nH]c2ccccc12)NC(=O)[C@H](CS)NC(=O)OCc1ccccc1 [(S)-2-[2-((R)-Benzyloxycarbonylamino)-3-mercapto-propionylamino]-3-(1H-indol-3-yl)-propionic acid methyl ester] (Cbz-Cys-Trp-OMe)
